# Assay results published in article PMC7496768, “Understanding Substrate Selectivity of Phoslactomycin Polyketide Synthase by Using Reconstituted in Vitro Systems” (Chembiochem, 2020).
# Biological target: T1, Npt (Streptomyces platensis, UniProt A0AAE6NLM9)
# T1 construct: recombinant, expressed in E. coli BL21 (DE3), purified
# T1 sequence (A0AAE6NLM9 1-219): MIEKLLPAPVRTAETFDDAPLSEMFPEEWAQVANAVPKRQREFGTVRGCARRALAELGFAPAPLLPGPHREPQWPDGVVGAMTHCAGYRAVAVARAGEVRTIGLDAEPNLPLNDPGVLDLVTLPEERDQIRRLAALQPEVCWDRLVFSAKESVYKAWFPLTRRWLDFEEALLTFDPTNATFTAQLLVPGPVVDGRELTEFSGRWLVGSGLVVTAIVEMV
# Experiment: phosphopantetheinylation of apo-ACPs
# Format: biochemical
# Conditions: apo-Pn ACPs as acceptor
smiles,measurement,value
CC(C)(COP(=O)(O)OP(=O)(O)OC[C@H]1O[C@@H](n2cnc3c(N)ncnc32)[C@H](O)[C@@H]1OP(=O)(O)O)[C@@H](O)C(=O)NCCC(=O)NCCS [CoA-SH],phosphopantetheinylation of apo-ACPs,Npt serves as a bona fide Ppant transferase that is able to activate apo‐Pn_ACPs
